Reference: patent publication US20250268884A1, “Deuterated Domperidone for Treating Gastroparesis” (CinDome Pharma, Inc., priority 2022, published 2025)

System: adults with idiopathic or diabetic gastroparesis
Assay: Safety: adverse events, laboratory values, vital signs, Phase 2a
[1] = 5 mg BID (N = 9), Safety Population

Experimental: Safety was evaluated through assessments of Aes, vital signs, physical examinations, clinical laboratory evaluations (including prolactin), and ECG findings. Additionally, a single, optional PGx blood sample may have been collected at any time during the subject's participation in the study.
Safety variables included Aes, clinical laboratory results (including prolactin), vital signs, ECGs, and physical examination findings.

[2H]c1c([2H])c([2H])c2c([nH]c(=O)n2CCCN2CCC(n3c(=O)[nH]c4cc(Cl)ccc43)CC2)c1[2H] [Deudomperidone, 1-{3-[4-(5-chloro-2-oxo-2,3-dihydro-1H-1,3-benzodiazol-1-yl)piperidin-1yl]propyl}-2,3-dihydro(4,5,6,7-D4)-1H-1,3-benzodiazol-2-one]
TEAEs reported (5 mg BID): 1 TEAE
other TEAE: abdominal pain lower (5 mg BID): 1 subject each
other study drug-related TEAE: abdominal pain lower (5 mg BID): 1 subject each
study drug-related TEAEs reported (5 mg BID): 1 TEAE
subjects with study drug-related TEAEs (5 mg BID): 1 (11.1%) subjects (%)
Study drug-related TEAE Abdominal pain lower, % (5 mg BID (N = 9)): (11.1) %
Study drug-related TEAE Blood creatine phosphokinase increased, % (5 mg BID (N = 9)): (0.0) %
Study drug-related TEAE Cardiac disorders, % (5 mg BID (N = 9)): (0.0) %
Study drug-related TEAE Diarrhoea, % (5 mg BID (N = 9)): (0.0) %
Study drug-related TEAE Ear and labyrinth disorders, % (5 mg BID (N = 9)): (0.0) %
Study drug-related TEAE Electrocardiogram QT prolonged, % (5 mg BID (N = 9)): (0.0) %
Study drug-related TEAE Gastrointestinal disorders, % (5 mg BID (N = 9)): (11.1) %
Study drug-related TEAE Headache, % (5 mg BID (N = 9)): (0.0) %
Study drug-related TEAE Investigations, % (5 mg BID (N = 9)): (0.0) %
Study drug-related TEAE Nausea, % (5 mg BID (N = 9)): (0.0) %
Study drug-related TEAE Nervous system disorders, % (5 mg BID (N = 9)): (0.0) %
Study drug-related TEAE Palpitations, % (5 mg BID (N = 9)): (0.0) %
Study drug-related TEAE Tinnitus, % (5 mg BID (N = 9)): (0.0) %
Subjects with any TEAEs, % (5 mg BID (N = 9)): 11.1%
Subjects with any TEAEs, e (events) (5 mg BID (N = 9)): 1
Subjects with any study drug-related TEAE, % (5 mg BID (N = 9)): 11.1%
Subjects with any study drug-related TEAE, e (events) (5 mg BID (N = 9)): 1
TEAE Abdominal pain lower, % (5 mg BID (N = 9)): (11.1) %
TEAE Arthralgia, % (5 mg BID (N = 9)): (0.0) %
TEAE Back pain, % (5 mg BID (N = 9)): (0.0) %
TEAE Blood creatine phosphokinase increased, % (5 mg BID (N = 9)): (0.0) %
TEAE Cardiac disorders, % (5 mg BID (N = 9)): (0.0) %
TEAE Constipation, % (5 mg BID (N = 9)): (0.0) %
TEAE Decreased appetite, % (5 mg BID (N = 9)): (0.0) %
TEAE Diarrhoea, % (5 mg BID (N = 9)): (0.0) %
TEAE Dyspepsia, % (5 mg BID (N = 9)): (0.0) %
TEAE Ear and labyrinth disorders, % (5 mg BID (N = 9)): (0.0) %
TEAE Electrocardiogram QT prolonged, % (5 mg BID (N = 9)): (0.0) %
TEAE Gastrointestinal disorders, % (5 mg BID (N = 9)): (11.1) %
TEAE Headache, % (5 mg BID (N = 9)): (0.0) %
TEAE Hypoglycaemia, % (5 mg BID (N = 9)): (0.0) %
TEAE Infections and infestations, % (5 mg BID (N = 9)): (0.0) %
TEAE Investigations, % (5 mg BID (N = 9)): (0.0) %
TEAE Metabolism and nutrition disorders, % (5 mg BID (N = 9)): (0.0) %
TEAE Musculoskeletal and connective tissue disorders, % (5 mg BID (N = 9)): (0.0) %
TEAE Nausea, % (5 mg BID (N = 9)): (0.0) %
TEAE Nervous system disorders, % (5 mg BID (N = 9)): (0.0) %
TEAE Palpitations, % (5 mg BID (N = 9)): (0.0) %
TEAE Sinusitis, % (5 mg BID (N = 9)): (0.0) %
TEAE Tinnitus, % (5 mg BID (N = 9)): (0.0) %
TEAE Vomiting, % (5 mg BID (N = 9)): (0.0) %
Any Aes, % of subjects [1]: (11.1) %
Any Aes, n subjects [1]: 1
Any TEAEs by maximum severity: Mild, % of subjects [1]: (11.1) %
Any TEAEs by maximum severity: Mild, n subjects [1]: 1
Any TEAEs by maximum severity: Moderate, % of subjects [1]: (0.0) %
Any TEAEs by maximum severity: Moderate, n subjects [1]: 0
Any TEAEs by maximum severity: Severe, % of subjects [1]: (0.0) %
Any TEAEs by maximum severity: Severe, n subjects [1]: 0
Any TEAEs leading to death, % of subjects [1]: (0.0) %
Any TEAEs leading to death, n subjects [1]: 0
Any TEAEs leading to discontinuation, % of subjects [1]: (0.0) %
Any TEAEs leading to discontinuation, n subjects [1]: 0
Any TEAEs, % of subjects [1]: 11.1%
Any TEAEs, e (number of events) [1]: 1
Any TEAEs, n subjects [1]: 1
Any serious TEAEs, % of subjects [1]: (0.0) %
Any serious TEAEs, n subjects [1]: 0
Any study drug-related TEAEs by maximum severity: Mild, % of subjects [1]: (11.1) %
Any study drug-related TEAEs by maximum severity: Mild, n subjects [1]: 1
Any study drug-related TEAEs by maximum severity: Moderate, % of subjects [1]: (0.0) %
Any study drug-related TEAEs by maximum severity: Moderate, n subjects [1]: 0
Any study drug-related TEAEs by maximum severity: Severe, % of subjects [1]: (0.0) %
Any study drug-related TEAEs by maximum severity: Severe, n subjects [1]: 0
Any study drug-related TEAEs leading to discontinuation, % of subjects [1]: (0.0) %
Any study drug-related TEAEs leading to discontinuation, n subjects [1]: 0
Any study drug-related TEAEs, % of subjects [1]: (11.1) %
Any study drug-related TEAEs, n subjects [1]: 1
Any study drug-related serious TEAEs, % of subjects [1]: (0.0) %
Any study drug-related serious TEAEs, n subjects [1]: 0
subjects who experienced a TEAE (5 mg BID, Safety Population): 1 (11.1%) subjects (%)
TEAE diarrhoea (10 mg BID): 3 (10.0%) subjects (%)
TEAE electrocardiogram QT prolonged (10 mg BID): 1 (3.3%) subjects (%)
TEAE hypoglycaemia (10 mg BID): 1 (3.3%) subjects (%)
TEAEs reported (10 mg BID): 11 TEAEs
other TEAEs, each: nausea, vomiting, blood creatine phosphokinase increased, decreased appetite, palpitations, tinnitus (10 mg BID): 1 subject each
other study drug-related TEAEs, each: nausea, blood creatine phosphokinase increased, palpitations, tinnitus (10 mg BID): 1 subject each
study drug-related TEAE diarrhoea (10 mg BID): 2 (6.7%) subjects (%)
study drug-related TEAEs reported (10 mg BID): 6 TEAEs
subjects with study drug-related TEAEs (10 mg BID): 4 (13.3%) subjects (%)
Study drug-related TEAE Abdominal pain lower, % (10 mg BID (N = 30)): (0.0) %
Study drug-related TEAE Blood creatine phosphokinase increased, % (10 mg BID (N = 30)): (3.3) %
Study drug-related TEAE Cardiac disorders, % (10 mg BID (N = 30)): (3.3) %
Study drug-related TEAE Diarrhoea, % (10 mg BID (N = 30)): (6.7) %
Study drug-related TEAE Ear and labyrinth disorders, % (10 mg BID (N = 30)): (3.3) %
Study drug-related TEAE Electrocardiogram QT prolonged, % (10 mg BID (N = 30)): (0.0) %
Study drug-related TEAE Gastrointestinal disorders, % (10 mg BID (N = 30)): (10.0) %
Study drug-related TEAE Headache, % (10 mg BID (N = 30)): (0.0) %
Study drug-related TEAE Investigations, % (10 mg BID (N = 30)): (3.3) %
Study drug-related TEAE Nausea, % (10 mg BID (N = 30)): (3.3) %
Study drug-related TEAE Nervous system disorders, % (10 mg BID (N = 30)): (0.0) %
Study drug-related TEAE Palpitations, % (10 mg BID (N = 30)): (3.3) %
Study drug-related TEAE Tinnitus, % (10 mg BID (N = 30)): (3.3) %
Subjects with any TEAEs, % (10 mg BID (N = 30)): 20.0%
Subjects with any TEAEs, e (events) (10 mg BID (N = 30)): 11
Subjects with any study drug-related TEAE, % (10 mg BID (N = 30)): 13.3%
Subjects with any study drug-related TEAE, e (events) (10 mg BID (N = 30)): 6
TEAE Abdominal pain lower, % (10 mg BID (N = 30)): (0.0) %
TEAE Arthralgia, % (10 mg BID (N = 30)): (0.0) %
TEAE Back pain, % (10 mg BID (N = 30)): (0.0) %
TEAE Blood creatine phosphokinase increased, % (10 mg BID (N = 30)): (3.3) %
TEAE Cardiac disorders, % (10 mg BID (N = 30)): (3.3) %
TEAE Constipation, % (10 mg BID (N = 30)): (0.0) %
TEAE Decreased appetite, % (10 mg BID (N = 30)): (3.3) %
TEAE Diarrhoea, % (10 mg BID (N = 30)): (10.0) %
TEAE Dyspepsia, % (10 mg BID (N = 30)): (0.0) %
TEAE Ear and labyrinth disorders, % (10 mg BID (N = 30)): (3.3) %
TEAE Electrocardiogram QT prolonged, % (10 mg BID (N = 30)): (3.3) %
TEAE Gastrointestinal disorders, % (10 mg BID (N = 30)): (13.3) %
TEAE Headache, % (10 mg BID (N = 30)): (0.0) %
TEAE Hypoglycaemia, % (10 mg BID (N = 30)): (3.3) %
TEAE Infections and infestations, % (10 mg BID (N = 30)): (0.0) %
TEAE Investigations, % (10 mg BID (N = 30)): (6.7) %
TEAE Metabolism and nutrition disorders, % (10 mg BID (N = 30)): (6.7) %
TEAE Musculoskeletal and connective tissue disorders, % (10 mg BID (N = 30)): (0.0) %
